PubChem BioAssay (NCI)
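1) Cells in 96-well plates. 2) Compound, 48 h, 5 concentrations. 3) Linear interpolation between surrounding doses. 4) Unreached endpoint = highest concentration. TGI marks complete inhibition of growth.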

How the values were obtained:
Assay in all cases: DTP human tumour cell line panel, 48 h
[1] = test system: DMS 114 small cell lung
[2] = test system: OVCAR-3 ovarian
[3] = test system: DLD-1 colon
[4] = test system: MALME-3M melanoma
[5] = test system: SF-539 CNS
[6] = test system: HT29 colon
[7] = test system: LOX IMVI melanoma
[8] = test system: OVCAR-5 ovarian
[9] = test system: SNB-75 CNS
[10] = test system: M19-MEL melanoma
[11] = test system: K-562 leukemia
[12] = test system: CCRF-CEM leukemia
[13] = test system: ACHN renal
[14] = test system: SK-MEL-28 melanoma
[15] = test system: SW-620 colon
[16] = test system: HL-60(TB) leukemia
[17] = test system: SR leukemia
[18] = test system: HCT-15 colon
[19] = test system: NCI-H226 lung
[20] = test system: IGROV1 ovarian
[21] = test system: SF-268 CNS
[22] = test system: SNB-78 CNS
[23] = test system: MOLT-4 leukemia
[24] = test system: SNB-19 CNS
[25] = test system: NCI-H460 lung
[26] = test system: SN12C renal
[27] = test system: UACC-62 melanoma
[28] = test system: M14 melanoma
[29] = test system: HOP-62 NSCLC
[30] = test system: A498 renal
[31] = test system: SF-295 CNS
[32] = test system: SK-OV-3 ovarian
[33] = test system: U251 CNS
[34] = test system: OVCAR-4 ovarian
[35] = test system: A549 NSCLC
[36] = test system: HCC-2998 colon
[37] = test system: EKVX NSCLC
[38] = test system: LXFL 529 NSCLC
[39] = test system: XF 498 CNS
[40] = test system: UACC-257 melanoma
[41] = test system: TK-10 renal
[42] = test system: HCT-116 colon
[43] = test system: UO-31 renal
[44] = test system: KM20L2 colon
[45] = test system: NCI-H23 lung
[46] = test system: KM12 colon
[47] = test system: RXF 393 renal

Measured: TGI

Nc1ccc2c(c1)C(=O)N(O)C2=O
> 100 µM: all assays above
